In ChEMBL document CHEMBL1201862, “PubChem BioAssay data set” (2004):
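Interpolation was linear, between the two tested concentrations surrounding the appropriate level; five concentrations were tested over 48 hours in 96-well plates. At the GI50, growth is halved.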 Active and inactive are the calls of the source. Cut-off read from the data, not from the text of the source: active = GI50 up to about 1.1 µM and inactive = higher.

Legend:
Assay in all cases: growth of human tumour cells (NCI), 48 h
UACC-62 = tested on: UACC-62
CCRF-CEM = tested on: CCRF-CEM
A498 = tested on: A498
KM12 = tested on: KM12
NCI-H460 = tested on: NCI-H460
M14 = tested on: M14
OVCAR-8 = tested on: OVCAR-8
OVCAR-5 = tested on: OVCAR-5
NCI-H23 = tested on: NCI-H23
EKVX = tested on: EKVX
HCT-15 = tested on: HCT-15
SN12C = tested on: SN12C
COLO 205 = tested on: COLO 205
DMS-273 = tested on: DMS-273
HT-29 = tested on: HT-29
RXF 393 = tested on: RXF 393
UO-31 = tested on: UO-31
SK-MEL-5 = tested on: SK-MEL-5
SNB-78 = tested on: SNB-78
HCC 2998 = tested on: HCC 2998
DLD-1 = tested on: DLD-1
786-0 = tested on: 786-0
HCT-116 = tested on: HCT-116
HOP-18 = tested on: HOP-18
HOP-62 = tested on: HOP-62
IGROV-1 = tested on: IGROV-1
A549 = tested on: A549
SK-MEL-2 = tested on: SK-MEL-2
ACHN = tested on: ACHN
LOX IMVI = tested on: LOX IMVI
HL-60 = tested on: HL-60
OVCAR-3 = tested on: OVCAR-3
RPMI-8226 = tested on: RPMI-8226
KM-20L2 = tested on: KM-20L2
SF-539 = tested on: SF-539
SK-MEL-28 = tested on: SK-MEL-28
MOLT-4 = tested on: MOLT-4
SW-620 = tested on: SW-620
UACC-257 = tested on: UACC-257
TK-10 = tested on: TK-10
SF-295 = tested on: SF-295
CAKI-1 = tested on: CAKI-1
SF-268 = tested on: SF-268
LXFL 529 = tested on: LXFL 529
SNB-19 = tested on: SNB-19
U-251 = tested on: U-251
M19-MEL = tested on: M19-MEL
HOP-92 = tested on: HOP-92
OVCAR-4 = tested on: OVCAR-4
NCI-H522 = tested on: NCI-H522
K562 = tested on: K562
Malme-3M = tested on: Malme-3M
DMS-114 = tested on: DMS-114
SK-OV-3 = tested on: SK-OV-3
SNB-75 = tested on: SNB-75
MDA-N = tested on: MDA-N
DU-145 = tested on: DU-145
MDA-MB-231 = tested on: MDA-MB-231
MDA-MB-435 = tested on: MDA-MB-435
SR = tested on: SR
T47D = tested on: T47D
NCI-H226 = tested on: NCI-H226
BT-549 = tested on: BT-549
Hs-578T = tested on: Hs-578T
PC-3 = tested on: PC-3
NCI/ADR-RES = tested on: NCI/ADR-RES
MCF7 = tested on: MCF7

Measured: GI50

O=C1c2cccc(NCCCNCCO)c2C(=O)c2cccc(NCCCNCCO)c21
active: HCC 2998 1.08 µM
inactive: UACC-62 1.76 µM | CCRF-CEM 1.34 µM | A498 2.17 µM | KM12 1.92 µM | NCI-H460 1.68 µM | M14 2.09 µM | OVCAR-8 1.86 µM | OVCAR-5 2.65 µM | NCI-H23 2.99 µM | EKVX 2.32 µM | SN12C 1.26 µM | COLO 205 1.36 µM | DMS-273 2.02 µM | HT-29 1.41 µM | RXF 393 2.95 µM | UO-31 9.68 µM | SK-MEL-5 1.78 µM | SNB-78 2.06 µM | DLD-1 3.13 µM | 786-0 1.96 µM | HCT-116 1.56 µM | HOP-18 2.67 µM | HOP-62 2.43 µM | IGROV-1 2.56 µM | A549 1.99 µM | SK-MEL-2 1.92 µM | ACHN 1.59 µM | LOX IMVI 2.1 µM | HL-60 1.36 µM | OVCAR-3 2.53 µM | RPMI-8226 1.97 µM | KM-20L2 2.34 µM | SF-539 1.86 µM | SK-MEL-28 1.96 µM | MOLT-4 1.35 µM | SW-620 1.46 µM | UACC-257 3.56 µM | TK-10 3 µM
7.31 µM: HCT-15

CCN(CC)C(=O)c1ccc(C)c(/N=N/N(C)C)c1
inactive: UACC-62 > 100 µM | KM12 > 100 µM | NCI-H460 > 100 µM | M14 > 100 µM | OVCAR-8 > 100 µM | NCI-H23 > 100 µM | EKVX > 100 µM | SF-295 > 100 µM | SN12C > 100 µM | DMS-273 > 100 µM | HT-29 > 100 µM | CAKI-1 > 100 µM | UO-31 > 100 µM | SK-MEL-5 > 100 µM | SF-268 > 100 µM | LXFL 529 > 100 µM | HCC 2998 > 100 µM | DLD-1 > 100 µM | 786-0 > 100 µM | SNB-19 > 100 µM | HCT-116 > 100 µM | U-251 > 100 µM | HOP-62 > 100 µM | IGROV-1 > 100 µM | A549 > 100 µM | SK-MEL-2 > 100 µM | ACHN > 100 µM | LOX IMVI > 100 µM | OVCAR-3 > 100 µM | KM-20L2 > 10 µM | SF-539 > 100 µM | M19-MEL > 100 µM | SK-MEL-28 > 100 µM | HOP-92 > 100 µM | OVCAR-4 > 100 µM | NCI-H522 44 µM | SW-620 > 100 µM | UACC-257 > 100 µM | TK-10 > 100 µM
> 100 µM: HCT-15

CCOP(=O)(OCC)/C(C#N)=C/c1cc(O)ccc1O
inactive: UACC-62 > 100 µM | A498 > 100 µM | KM12 > 100 µM | NCI-H460 > 100 µM | M14 > 100 µM | OVCAR-5 > 100 µM | NCI-H23 > 100 µM | K562 > 100 µM | SF-295 > 100 µM | COLO 205 > 100 µM | HT-29 > 100 µM | RXF 393 > 100 µM | UO-31 > 100 µM | SF-268 > 100 µM | SNB-78 > 100 µM | LXFL 529 > 100 µM | SNB-19 > 100 µM | HCT-116 > 100 µM | U-251 > 100 µM | HOP-62 > 100 µM | IGROV-1 > 100 µM | SK-MEL-2 > 100 µM | ACHN > 100 µM | Malme-3M > 100 µM | OVCAR-3 > 100 µM | DMS-114 > 100 µM | SK-OV-3 > 100 µM | SNB-75 79.3 µM | RPMI-8226 > 100 µM | KM-20L2 > 100 µM | SF-539 > 100 µM | M19-MEL > 100 µM | SK-MEL-28 > 100 µM | HOP-92 > 100 µM | OVCAR-4 > 100 µM | UACC-257 > 100 µM

Fc1cccc(CSc2ncnc3c2ncn3C2CCCS2)c1 (centres undefined)
inactive: UACC-62 13.1 µM | MDA-N 20.8 µM | CCRF-CEM 8.49 µM | A498 17.3 µM | KM12 15.4 µM | NCI-H460 4.79 µM | M14 18.1 µM | OVCAR-8 20.8 µM | OVCAR-5 37.3 µM | NCI-H23 23.9 µM | EKVX 18.7 µM | K562 8.77 µM | SF-295 18.2 µM | SN12C 25.8 µM | COLO 205 10.2 µM | HT-29 15.5 µM | RXF 393 17.3 µM | CAKI-1 37.1 µM | UO-31 12.1 µM | SK-MEL-5 10.5 µM | SF-268 14.8 µM | DU-145 17.4 µM | MDA-MB-231 23 µM | HCC 2998 21.9 µM | 786-0 20.7 µM | SNB-19 36.2 µM | HCT-116 8.34 µM | U-251 10.5 µM | HOP-62 17.6 µM | IGROV-1 22.4 µM | MDA-MB-435 18.5 µM | SR 3.94 µM | A549 20.1 µM | SK-MEL-2 19.6 µM | ACHN 16.9 µM | LOX IMVI 13.2 µM | Malme-3M 21 µM | T47D 29.3 µM | HL-60 8.83 µM | OVCAR-3 17.4 µM | NCI-H226 29.2 µM | BT-549 21.7 µM | SK-OV-3 38.5 µM | SNB-75 17.6 µM | Hs-578T 26.9 µM | RPMI-8226 7.08 µM | SF-539 11.7 µM | PC-3 14.5 µM | SK-MEL-28 18.9 µM | NCI/ADR-RES 25 µM | HOP-92 24.2 µM | OVCAR-4 23.4 µM | NCI-H522 15.1 µM | MOLT-4 3.77 µM | SW-620 29.9 µM | UACC-257 15.6 µM | MCF7 22 µM | TK-10 30.6 µM
8.51 µM: HCT-15

CC1=C2C(=C[C@@](C)(CO)[C@@H]2O)C(=O)[C@](C)(O)C12CC2 [ILLUDIN]
active: UACC-62 0.0129 µM | MDA-N < 0.0117 µM | CCRF-CEM 0.0169 µM | A498 0.0104 µM | KM12 0.0212 µM | NCI-H460 0.00147 µM | M14 0.00891 µM | OVCAR-8 0.0133 µM | OVCAR-5 0.0106 µM | NCI-H23 0.0052 µM | EKVX 0.027 µM | K562 0.012 µM | SF-295 0.00251 µM | SN12C 0.019 µM | COLO 205 0.00771 µM | HT-29 0.00341 µM | RXF 393 0.00664 µM | CAKI-1 0.0158 µM | UO-31 0.0147 µM | SK-MEL-5 0.00596 µM | SF-268 0.00293 µM | DU-145 0.0181 µM | MDA-MB-231 0.0213 µM | HCC 2998 0.013 µM | 786-0 0.00353 µM | SNB-19 0.0282 µM | HCT-116 0.00386 µM | U-251 0.00213 µM | HOP-62 0.00705 µM | IGROV-1 0.0155 µM | MDA-MB-435 0.0156 µM | SR 0.00182 µM | A549 0.00458 µM | SK-MEL-2 0.0143 µM | ACHN 0.00849 µM | LOX IMVI 0.00313 µM | Malme-3M 0.00889 µM | T47D 0.0123 µM | HL-60 0.00427 µM | OVCAR-3 0.0187 µM | NCI-H226 0.0231 µM | BT-549 0.00658 µM | SK-OV-3 0.00612 µM | SNB-75 0.0138 µM | Hs-578T 0.0169 µM | RPMI-8226 0.855 µM | SF-539 0.00506 µM | PC-3 0.0143 µM | SK-MEL-28 0.0167 µM | NCI/ADR-RES 0.0074 µM | HOP-92 0.0232 µM | OVCAR-4 0.00667 µM | NCI-H522 0.00352 µM | MOLT-4 0.00731 µM | SW-620 0.00305 µM | UACC-257 0.0145 µM | MCF7 0.00284 µM | TK-10 0.0223 µM
0.00675 µM: HCT-15
